The test system of series [1] is HCV. The following applies: cited from earlier work.
For series [2], the target named is T1, NS5B enzyme, HCV genotype 1b (Con1) (Hepatitis C virus genotype 1b, UniProt Q9WMX2).
T1 construct: Each untagged protein was expressed with an 18 amino acid C-terminal truncation to enhance the solubility; made in house; host or cells: E. coli BL21(DE3), pET21a vector
As to the kind of experiment: HCV NS5B RdRp enzyme assay. Format: biochemical. The following applies: 1b NS5B enzyme, 24 h preincubation, [33P]-GTP incorporation. The procedure: The cDNA encoding NS5B proteins of HCV genotype 1b (Con1), a genotype 1b variant with amino acid 316 mutated from cysteine to asparagine, and genotype 2a (JFH-1), were cloned into the pET21a expression vector. Each untagged protein was expressed with an 18 amino acid C-terminal truncation to enhance the solubility. The E. coli competent cell line BL21(DE3) was used for expression of the protein. Cultures were grown at 37° C. for ˜4 hours until the cultures reached an optical density of 2.0 at 600 nm. The cultures were cooled to 20° C. and induced with 1 mM IPTG. Fresh ampicillin was added to a final concentration of 50 μg/mL and the cells were grown overnight at 20° C.
Cell pellets (3 L) were lysed for purification to yield 15-24 mgs of purified NS5B. […]
HCV NS5B RdRp enzyme assay. […] The newly synthesized RNA product was precipitated by 10% TCA and quantified on the Packard Top Count NXT. IC50 values for compounds were determined using seven different [I]. IC50 values were calculated from the inhibition using the four-parameter logistic formula y=A+((B−A)/(1+((C/x)^D))), where A and B denote minimal and maximal % inhibition, respectively, C is the IC50, D is hill slope and x represents compound concentration.

Series [3] has as its system genotype 1b (Con-1) HCV replicon. Nature of the series: HCV replicon luciferase assay. Format: cell-based. The conditions noted are these: Hepatitis C virus, Huh-7, 72 h. The procedure: The cell lines used to evaluate compounds consist of a human hepatocyte derived cell line (Huh-7) that constitutively expresses a genotype 1b (Con-1) HCV replicon or a genotype 1b (Con-1) HCV replicon with an asparagine replacing the cysteine at amino acid 316, or a genotype 2a (JFH-1) replicon, containing a Renilla luciferase reporter gene. These cells were maintained in Dulbecco's modified Eagle medium (DMEM) containing 10% FBS, 100 U/mL penicillin/streptomycin and 1.0 mg/mL G418.
To evaluate compound efficacy, titrated compounds were transferred to sterile 384-well tissue culture treated plates, and the plates were seeded with HCV replicon cells (50 μL at a density of 2.4×10^3 cells/well) in DMEM containing 4% FBS (final DMSO concentration at 0.5%). After 3 days incubation at 37 C, cells were analyzed for Renilla Luciferase activity using the EnduRen substrate (Promega cat #E6485) according to the manufacturer's directions. […] The plates were incubated for at least 1 h at 37° C. then read on a Viewlux Imager (PerkinElmer) using a luminescence program. […]
To assess cytotoxicity of compounds, Cell Titer-Blue (Promega) was added to the EnduRen-containing plates and incubated for at least 4 h at 37° C. The fluorescence signal from each well was read using a Viewlux Imager. All CC50 values were calculated using the four-parameter logistic formula.
On the technique in general: A replicon is a self-replicating genome or part of one, used to study replication in cells.

We go through 2 molecules from US9556162B2, “Compound for the treatment of hepatitis C” (Bristol-Myers Squibb Company, priority 2013, dated 2017).

Structures are written as SMILES.

T1 sequence (Q9WMX2 2420-2992): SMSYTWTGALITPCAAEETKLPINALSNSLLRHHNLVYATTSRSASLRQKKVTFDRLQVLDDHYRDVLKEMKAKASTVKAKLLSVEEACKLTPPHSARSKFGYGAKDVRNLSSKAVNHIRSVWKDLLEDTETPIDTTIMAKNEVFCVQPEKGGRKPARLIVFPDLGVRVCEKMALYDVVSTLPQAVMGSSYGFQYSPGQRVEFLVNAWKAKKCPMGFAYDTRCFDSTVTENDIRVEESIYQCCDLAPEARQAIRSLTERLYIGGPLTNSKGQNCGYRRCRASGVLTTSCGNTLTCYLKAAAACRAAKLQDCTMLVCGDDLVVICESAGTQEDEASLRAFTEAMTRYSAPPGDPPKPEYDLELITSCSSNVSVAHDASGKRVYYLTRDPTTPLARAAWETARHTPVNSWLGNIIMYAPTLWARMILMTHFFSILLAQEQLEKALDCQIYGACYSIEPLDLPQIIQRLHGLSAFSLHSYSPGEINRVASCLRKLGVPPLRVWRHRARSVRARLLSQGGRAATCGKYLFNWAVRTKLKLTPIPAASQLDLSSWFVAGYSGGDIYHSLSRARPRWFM

For the molecule `CNC(=O)c1c(-c2ccc(F)cc2)oc2cc(N(CCO)S(C)(=O)=O)c(C3CC3)cc12` [HCV-796], the “toxicity during extended dosing of the combination regimens” value in series [1] (patients, combined with interferon and ribavirin) was “hepatic toxicity”. Besides, the “HCV RNA levels in patients” value in series [1] (single agent: transient decrease then rebound during dosing) is recorded as “reduce HCV RNA levels”.

Molecule `CC[C@@H](C)c1cc2oc(-c3ccc(F)cc3)c(C(=O)NC)c2cc1-c1cccc(C(=O)NC(C)(C)c2ncon2)c1` (single isomer, unassigned) [Enantiomer 2] yielded an IC50 in series [2] of 2.3 nM. In addition, the EC50 in series [3] was found to be 5.5 nM.

One may read the IC50 as the midpoint of a concentration-inhibition curve. What is called EC50 is the concentration that produces a half-maximal response. Low readings indicate an effect from little substance, high ones a need for much substance.
